Source: patent US20250388544A1, “HETEROAROMATIC INHIBITORS OF ASTACIN PROTEINASES” (VIVORYON THERAPEUTICS N.V., priority 2019, published 2025)

What was measured:
Assay type in all cases: biochemical
hMMP 2 = target: T1, hMMP 2 (Homo sapiens, UniProt P08253); assay: Residual enzyme activity of other metalloproteases; conditions: read-out: Residual enzyme activity MMP2; for remaining activity at 10 µM: 10 μM inhibitor; for remaining activity at 200 µM: 200 μM inhibitor
T1 construct: purchased Abnova
T1 sequence (P08253 110-660): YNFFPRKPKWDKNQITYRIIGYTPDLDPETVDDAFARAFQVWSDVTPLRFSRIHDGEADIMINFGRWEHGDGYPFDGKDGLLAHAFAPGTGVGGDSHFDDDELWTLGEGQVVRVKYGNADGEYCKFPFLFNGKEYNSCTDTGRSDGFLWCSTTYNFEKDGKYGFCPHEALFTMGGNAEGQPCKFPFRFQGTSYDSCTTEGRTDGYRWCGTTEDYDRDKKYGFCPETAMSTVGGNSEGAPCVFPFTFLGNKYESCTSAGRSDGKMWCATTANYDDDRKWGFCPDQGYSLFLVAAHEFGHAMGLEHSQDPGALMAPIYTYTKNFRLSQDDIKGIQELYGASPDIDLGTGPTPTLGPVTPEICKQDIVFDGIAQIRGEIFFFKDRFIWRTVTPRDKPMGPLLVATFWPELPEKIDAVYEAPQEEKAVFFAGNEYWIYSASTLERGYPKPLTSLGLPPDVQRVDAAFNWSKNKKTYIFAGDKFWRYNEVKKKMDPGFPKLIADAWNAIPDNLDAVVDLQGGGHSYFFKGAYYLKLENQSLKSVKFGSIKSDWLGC
Description: (§1) A typical assay of 250 μl total volume measured in black 96 well plates consisted of 100 μl buffer, 50 μl enzyme at a final concentration of 5e-8 M to 2e-10 M, 50 μl substrate (0.15 to 80 μM, in buffer, 0.5% DMSO) and 50 μl inhibitor solution (in buffer, 1% DMSO). In case of 125 μl assay volume (black 96 half area well plates) all volumes were cut in half. Enzymatic activity of ADAMs was measured in 384 well plates with 60 μl total assay volume consisting of 20 μl inhibitor, 20 μl buffer, 10 μl enzyme and 10 μl substrate.
(§2) MMPs were activated prior to measurement by APMA (p-aminophenylmercuric acetate) treatment according to manufacturer's instructions (R&D systems).

hMMP 13 = target: T2, hMMP 13 (Homo sapiens, UniProt P45452); assay: Residual enzyme activity of other metalloproteases; conditions: read-out: Residual enzyme activity MMP13; for remaining activity at 10 µM: 10 μM inhibitor; for remaining activity at 200 µM: 200 μM inhibitor
T2 construct: purchased R&D systems
Description: as §1, §2

hMMP 9 = target: T3, hMMP 9 (Homo sapiens, UniProt P14780); assay: Residual enzyme activity of other metalloproteases; conditions: read-out: Residual enzyme activity MMP9; for remaining activity at 10 µM: 10 μM inhibitor; for remaining activity at 200 µM: 200 μM inhibitor
T3 construct: purchased R&D systems
Description: as §1, with “The determination of enzymatic activity was based on the cleavage of internally quenched peptide substrates. A typical” for “A typical”
as §2

hMeprin β = target: T4, hMeprin β (Homo sapiens, UniProt Q16820); assay: Enzymatic assay, quenched peptide substrate cleavage, method B; conditions: geometric mean (geometric SD factor in parentheses); for Ki: Morrison's equation, read-out: Meprin beta Ki(app); for IC50: read-out: Meprin beta IC50
T4 sequence (Q16820 62-701): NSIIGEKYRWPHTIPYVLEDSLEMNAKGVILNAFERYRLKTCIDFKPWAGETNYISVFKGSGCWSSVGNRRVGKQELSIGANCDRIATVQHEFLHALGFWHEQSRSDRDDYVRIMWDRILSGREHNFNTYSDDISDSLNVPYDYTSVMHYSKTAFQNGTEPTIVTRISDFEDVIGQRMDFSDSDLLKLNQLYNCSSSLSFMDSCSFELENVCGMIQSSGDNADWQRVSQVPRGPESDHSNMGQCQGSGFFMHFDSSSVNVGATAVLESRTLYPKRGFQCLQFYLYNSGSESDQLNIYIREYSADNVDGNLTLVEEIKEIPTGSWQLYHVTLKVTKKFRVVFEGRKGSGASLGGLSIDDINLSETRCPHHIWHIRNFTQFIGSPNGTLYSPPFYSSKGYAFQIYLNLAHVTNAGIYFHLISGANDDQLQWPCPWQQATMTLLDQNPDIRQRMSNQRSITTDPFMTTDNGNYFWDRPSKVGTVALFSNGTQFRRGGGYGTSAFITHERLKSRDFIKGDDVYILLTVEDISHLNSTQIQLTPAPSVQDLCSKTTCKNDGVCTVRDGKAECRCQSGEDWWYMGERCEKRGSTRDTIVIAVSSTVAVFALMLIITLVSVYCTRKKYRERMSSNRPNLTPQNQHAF
How it was run: (§3)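 Cleavage of internally quenched peptides was read at 340/420 nm and 30° C., with enzyme at 5e-8 to 2e-10 M and substrate at 0.15–80 μM. Inhibitor solutions contained 1% DMSO and substrate 0.5% DMSO. Method B gave Ki(app) values via Morrison's equation, with kinetics measured in at least duplicate on separate days.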

hMeprin α = target: T5, hMeprin α (Homo sapiens, UniProt Q16819); assay: as above; conditions: geometric mean (geometric SD factor in parentheses); for Ki: Morrison's equation, read-out: Meprin alpha Ki(app); for IC50: read-out: Meprin alpha IC50
T5 sequence (Q16819 66-746): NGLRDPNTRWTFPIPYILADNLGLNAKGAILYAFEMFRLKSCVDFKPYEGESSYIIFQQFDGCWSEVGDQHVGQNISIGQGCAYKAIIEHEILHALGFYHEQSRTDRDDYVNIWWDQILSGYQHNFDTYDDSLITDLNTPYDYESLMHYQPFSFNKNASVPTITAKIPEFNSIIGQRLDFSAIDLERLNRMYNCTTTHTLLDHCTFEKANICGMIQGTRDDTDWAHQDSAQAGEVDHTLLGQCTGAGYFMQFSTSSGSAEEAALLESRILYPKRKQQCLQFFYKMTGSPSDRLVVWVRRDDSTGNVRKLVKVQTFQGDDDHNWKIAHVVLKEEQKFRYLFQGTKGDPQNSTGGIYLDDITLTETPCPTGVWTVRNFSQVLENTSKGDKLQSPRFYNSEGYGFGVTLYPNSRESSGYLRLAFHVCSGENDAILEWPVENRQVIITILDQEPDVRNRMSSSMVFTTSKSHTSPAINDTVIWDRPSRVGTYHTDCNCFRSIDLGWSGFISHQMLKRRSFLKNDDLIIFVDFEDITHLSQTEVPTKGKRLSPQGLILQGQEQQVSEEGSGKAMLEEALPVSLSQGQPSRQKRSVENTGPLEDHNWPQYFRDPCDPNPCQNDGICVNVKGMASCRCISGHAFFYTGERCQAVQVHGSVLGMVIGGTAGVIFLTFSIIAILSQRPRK
How it was run: as §3

T3 sequence (P14780 107-707 limits assumed): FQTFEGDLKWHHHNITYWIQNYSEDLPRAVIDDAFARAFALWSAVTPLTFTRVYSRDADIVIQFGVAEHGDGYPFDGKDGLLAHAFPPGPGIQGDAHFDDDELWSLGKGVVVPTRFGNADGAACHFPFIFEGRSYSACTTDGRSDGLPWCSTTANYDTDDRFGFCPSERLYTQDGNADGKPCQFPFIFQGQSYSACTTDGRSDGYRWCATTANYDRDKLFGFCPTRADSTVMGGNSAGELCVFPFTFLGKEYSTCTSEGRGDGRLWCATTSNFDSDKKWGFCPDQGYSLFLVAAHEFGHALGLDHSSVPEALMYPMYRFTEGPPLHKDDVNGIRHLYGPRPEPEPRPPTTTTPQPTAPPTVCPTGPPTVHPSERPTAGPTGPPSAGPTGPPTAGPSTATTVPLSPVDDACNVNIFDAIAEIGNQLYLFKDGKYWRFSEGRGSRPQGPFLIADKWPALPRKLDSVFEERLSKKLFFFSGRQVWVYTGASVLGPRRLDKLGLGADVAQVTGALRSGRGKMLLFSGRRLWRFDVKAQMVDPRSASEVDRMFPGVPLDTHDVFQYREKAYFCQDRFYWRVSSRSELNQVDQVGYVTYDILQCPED

Compound	remaining activity at 10 µM (hMMP 2) [%]	remaining activity at 200 µM (hMMP 2) [%]	remaining activity at 10 µM (hMMP 13) [%]	remaining activity at 200 µM (hMMP 13) [%]	remaining activity at 10 µM (hMMP 9) [%]	remaining activity at 200 µM (hMMP 9) [%]	Ki (hMeprin β) [nM]	IC50 (hMeprin β) [nM]	Ki (hMeprin α) [nM]	IC50 (hMeprin α) [nM]
COc1cccc(-c2n[nH]c(-c3ccccc3)c2CC(=O)NO)c1 [Example 47, 2-[3-(3-Methoxyphenyl)-5-phenyl-1H-pyrazol-4-yl]ethanehydroxamic acid]	78	17	85	28	80	33	116	123	1	1
COc1ccc(-c2n[nH]c(-c3ccccc3)c2CC(=O)NO)cc1OC [Example 49, 2-[3-(3,4-Dimethoxyphenyl)-5-phenyl-1H-pyrazol-4-yl]ethanehydroxamic acid]	83	26	101	18	90	44	83	84	0.71	0.79
O=C(Cc1c(-c2ccc3c(c2)OCO3)n[nH]c1-c1ccccc1)NO [Example 50, 2-[3-(1,3-Benzodioxol-5-yl)-5-phenyl-1H-pyrazol-4-yl]ethanehydroxamic acid]	41	8	71	10	72	16	109	118	1	1
O=C(Cc1c(-c2cc(F)c(O)c(Cl)c2)n[nH]c1-c1ccccc1)NO [Example 54, 2-[3-(3-Chloro-5-fluoro-4-hydroxy-phenyl)-5-phenyl-1H-pyrazol-4-yl]ethanehydroxamic acid]	66	17	88	28	86	39	0.42	0.44	0.14	0.21
O=C(Cc1c(-c2cccc(C(=O)O)c2)n[nH]c1-c1ccc(Cl)c(O)c1F)NO [Example 63, 3-[5-(4-Chloro-2-fluoro-3-hydroxy-phenyl)-4-[2-(hydroxyamino)-2-oxo-ethyl]-1H-pyrazol-3-yl]benzoic acid]	95	81	105	73	94	71	4	4	5	5
